Where “and” joins values, the source holds several entries; their conditions need not be identical. Identical values can stand only once. Inconclusive results and toxic doses are left out. How the source made its calls: active means survival T/C of 150% or more; inactive means T/C below 125% in these data.
Test system: P388 leukemia ip, CD2F1 mice, survival T/C
Assay: NCI In Vivo Anticancer Drug Screen. Data for tumor model P388 Leukemia (intraperitoneal) in CD2F1 (CDF1) mice
Settings: endpoint: median survival time, higher = longer survival
How it was run: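 Mice carrying the transplanted tumor received test compound or vehicle. Survival was recorded in each group, and the value is the treated-group measurement divided by that of the vehicle-treated control group.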

[1] = dose: 50.0 mg/kg/injection, schedule: Q01DX005 (ip), vehicle: saline with Tween-80
[2] = dose: 100.0 mg/kg/injection, schedule: Q01DX005 (ip), vehicle: saline with Tween-80
[3] = dose: 200.0 mg/kg/injection, schedule: Q01DX005 (ip), vehicle: saline with Tween-80
[4] = dose: 50.0 mg/kg/injection, schedule: Q01DX009 (ip), vehicle: saline with Tween-80
[5] = dose: 100.0 mg/kg/injection, schedule: Q01DX009 (ip), vehicle: saline with Tween-80
[6] = dose: 200.0 mg/kg/injection, schedule: Q01DX009 (ip), vehicle: saline with Tween-80
[7] = dose: 12.5 mg/kg/injection, schedule: Q01DX005 (ip), vehicle: Klucel (hydroxypropylcellulose) (HPC)
[8] = dose: 25.0 mg/kg/injection, schedule: Q01DX005 (ip), vehicle: Klucel (hydroxypropylcellulose) (HPC)
[9] = dose: 50.0 mg/kg/injection, schedule: Q01DX005 (ip), vehicle: Klucel (hydroxypropylcellulose) (HPC)
[10] = dose: 60.0 mg/kg/injection, schedule: Q01DX005 (ip), vehicle: saline with Tween-80
[11] = dose: 120.0 mg/kg/injection, schedule: Q01DX005 (ip), vehicle: saline with Tween-80
[12] = dose: 25.0 mg/kg/injection, schedule: Q01DX009 (ip), vehicle: Klucel (hydroxypropylcellulose) (HPC)
[13] = dose: 50.0 mg/kg/injection, schedule: Q01DX009 (ip), vehicle: Klucel (hydroxypropylcellulose) (HPC)
[14] = dose: 100.0 mg/kg/injection, schedule: Q01DX009 (ip), vehicle: Klucel (hydroxypropylcellulose) (HPC)
[15] = dose: 200.0 mg/kg/injection, schedule: Q01DX009 (ip), vehicle: Klucel (hydroxypropylcellulose) (HPC)
[16] = dose: 50.0 mg/kg/injection, schedule: Q01DX005 (ip), vehicle: saline
[17] = dose: 100.0 mg/kg/injection, schedule: Q01DX005 (ip), vehicle: saline
[18] = dose: 100.0 mg/kg/injection, schedule: Q01DX005 (ip), vehicle: Klucel (hydroxypropylcellulose) (HPC)
[19] = dose: 200.0 mg/kg/injection, schedule: Q01DX005 (ip), vehicle: Klucel (hydroxypropylcellulose) (HPC)

Measured: T/C

CC(C)=N/N=C1\C(OC(=O)Nc2ccccc2)=Nc2ccccc21
inactive: [1] 96 % of control | [2] 95 % of control | [3] 90 % of control

Cc1cc[c]([Sb]2([c]3ccc(C)cc3)([c]3ccc(C)cc3)[NH]c3cc(C(c4ccccc4)(c4ccccc4)c4ccccc4)cc(C(C)(C)C)c3[O]2)cc1
inactive: [4] 94 % of control | [5] 92 % of control | [6] 99 % of control

Cn1ncc2c(Nc3ccc(F)cc3)c3ccccc3nc21
inactive: dose: 60.0 mg/kg/injection, schedule: Q01DX005 (ip), vehicle: Klucel (hydroxypropylcellulose) (HPC) 97 % of control | dose: 120.0 mg/kg/injection, schedule: Q01DX005 (ip), vehicle: Klucel (hydroxypropylcellulose) (HPC) 95 % of control | dose: 240.0 mg/kg/injection, schedule: Q01DX005 (ip), vehicle: Klucel (hydroxypropylcellulose) (HPC) 90 % of control

Cc1ccc(OP(=O)(Oc2ccc(C)cc2)Oc2ccc(C)cc2)cc1.Cc1ccc(OP(=O)(Oc2ccc(C)cc2)Oc2ccc(C)cc2)cc1.Cc1ccc(OP(=O)(Oc2ccc(C)cc2)Oc2ccc(C)cc2)cc1.Cc1ccc(OP(=O)(Oc2ccc(C)cc2)Oc2ccc(C)cc2)cc1.[Ni+2].[O-][Cl+3]([O-])([O-])O
inactive: dose: 20.0 mg/kg/injection, schedule: Q01DX001 (ip), vehicle: Klucel (hydroxypropylcellulose) (HPC) 100 % of control | dose: 40.0 mg/kg/injection, schedule: Q01DX001 (ip), vehicle: Klucel (hydroxypropylcellulose) (HPC) 106 % of control | dose: 80.0 mg/kg/injection, schedule: Q01DX001 (ip), vehicle: Klucel (hydroxypropylcellulose) (HPC) 97 % of control

[Cl][Pd][Cl].[NH-]C(CC(N)=O)C(=O)O (stereo not drawn)
inactive: [7] 101 % of control | [8] 95 % of control | [9] 100 % of control and 113 % of control

COC(=O)CCC(=O)Nc1c(C)cccc1C(C)C
inactive: [10] 105 % of control | [11] 99 % of control | dose: 240.0 mg/kg/injection, schedule: Q01DX005 (ip), vehicle: saline with Tween-80 99 % of control

CCOC(=O)c1cc(/C=C/c2ccc(Cl)cc2Cl)on1
inactive: [10] 100 % of control | [11] 90 % of control

CCOC(=O)C(SC(Cl)(S(=O)(=O)c1ccccc1)S(=O)(=O)c1ccccc1)C(=O)OCC
inactive: [12] 105 % of control and 109 % of control | [13] 116 % of control and 120 % of control and 121 % of control | [14] 115 % of control and 116 % of control and 124 % of control | [15] 110 % of control and 120 % of control and 121 % of control | dose: 400.0 mg/kg/injection, schedule: Q01DX009 (ip), vehicle: Klucel (hydroxypropylcellulose) (HPC) 109 % of control

O=[N+]([O-])c1ccc(/C=C/c2cccs2)c([N+](=O)[O-])c1
inactive: [13] 105 % of control | [14] 94 % of control | [15] 88 % of control

CN(C)CCN(Cc1ccccc1)c1ccc2ccccc2n1
inactive: dose: 6.25 mg/kg/injection, schedule: Q01DX005 (ip), vehicle: Klucel (hydroxypropylcellulose) (HPC) 97 % of control | [7] 97 % of control | [8] 99 % of control

CC(=O)C1CCN(CN2CCC(C(C)=O)CC2)CC1
inactive: dose: 25.0 mg/kg/injection, schedule: Q01DX005 (ip), vehicle: saline 101 % of control | [16] 110 % of control | [17] 97 % of control

COC(=O)c1ncn(C2CCCCC2)c1N
inactive: dose: 6.25 mg/kg/injection, schedule: Q01DX005 (ip), vehicle: saline with Tween-80 99 % of control | dose: 12.5 mg/kg/injection, schedule: Q01DX005 (ip), vehicle: saline with Tween-80 101 % of control

CCCCN(CCCC)CCN1C(=O)c2ccccc2S1(=O)=O
inactive: [16] 104 % of control | [17] 109 % of control | dose: 200.0 mg/kg/injection, schedule: Q01DX005 (ip), vehicle: saline 102 % of control

O=C(O)c1ccc(N2N=C3C(=CC(=O)c4ccccc43)SCC2=O)cc1
inactive: dose: 12.5 mg/kg/injection, schedule: Q01DX005 (ip), vehicle: saline + Tween-80 + alcohol 97 % of control | dose: 25.0 mg/kg/injection, schedule: Q01DX005 (ip), vehicle: saline + Tween-80 + alcohol 112 % of control

N#CCN(CNC(=O)c1ccccc1)N=O
inactive: dose: 100.0 mg/kg/injection, schedule: Q04DX002 (ip), vehicle: saline with Tween-80 101 % of control | dose: 200.0 mg/kg/injection, schedule: Q04DX002 (ip), vehicle: saline with Tween-80 105 % of control

Nc1nc(Cl)cc(Cl)n1
inactive: dose: 12.5 mg/kg/injection, schedule: Q01DX009 (ip), vehicle: Klucel (hydroxypropylcellulose) (HPC) 94 % of control | [12] 107 % of control | [13] 108 % of control | [14] 99 % of control

CC(=O)CSC1=CC(C)(C)CC1=O
inactive: [9] 96 % of control | [18] 99 % of control | [19] 99 % of control

CN(C)c1ccc(C(Cc2ccc3ccccc3n2)Cc2ccc3ccccc3n2)cc1
inactive: [1] 99 % of control | [2] 88 % of control | [3] 89 % of control

C=C1C2CCC3C45C=NCC(C)(CCC4)C5CCC3(C2)C1OC(C)=O (stereo not drawn)
inactive: dose: 2.0 mg/kg/injection, schedule: Q01DX009 (ip), vehicle: Klucel (hydroxypropylcellulose) (HPC) 104 % of control | dose: 4.0 mg/kg/injection, schedule: Q01DX009 (ip), vehicle: Klucel (hydroxypropylcellulose) (HPC) 94 % of control | dose: 8.0 mg/kg/injection, schedule: Q01DX009 (ip), vehicle: Klucel (hydroxypropylcellulose) (HPC) 104 % of control | dose: 16.0 mg/kg/injection, schedule: Q01DX009 (ip), vehicle: Klucel (hydroxypropylcellulose) (HPC) 93 % of control

OC1(c2cc3ccccc3c3ccccc23)c2ccccc2-c2ccccc21
inactive: [1] 98 % of control | [2] 100 % of control | [3] 100 % of control

C=C(C)C(=O)OCCN(C)C (tested in a mixture with another compound)
inactive: [4] 100 % of control | [5] 100 % of control | [6] 100 % of control

CCOC(=O)CC(=O)c1sc(Nc2ccccc2)c(C(N)=O)c1N
inactive: [1] 100 % of control | [2] 94 % of control | [3] 94 % of control

COc1ccc([N+](=O)[O-])c(C=O)c1OS(=O)(=O)c1ccc(C)c([N+](=O)[O-])c1
inactive: dose: 25.0 mg/kg/injection, schedule: Q01DX009 (ip), vehicle: distilled water + Tween-80 93 % of control | dose: 100.0 mg/kg/injection, schedule: Q01DX009 (ip), vehicle: distilled water + Tween-80 98 % of control | dose: 200.0 mg/kg/injection, schedule: Q01DX009 (ip), vehicle: distilled water + Tween-80 90 % of control | dose: 400.0 mg/kg/injection, schedule: Q01DX009 (ip), vehicle: distilled water + Tween-80 90 % of control

COC(=O)C1(CC(C)=O)NC(=S)NC(=O)C1C#N (stereo not drawn)
inactive: dose: 60.0 mg/kg/injection, schedule: Q01DX005 (ip), vehicle: saline 100 % of control | dose: 120.0 mg/kg/injection, schedule: Q01DX005 (ip), vehicle: saline 96 % of control | dose: 240.0 mg/kg/injection, schedule: Q01DX005 (ip), vehicle: saline 97 % of control

CN1C(=O)/C(=C2\SC(=O)N(CN3CCOCC3)C2=O)c2cc(Br)ccc21
inactive: [9] 88 % of control | [18] 89 % of control | [19] 97 % of control

C#CCOC(=O)C(Cl)(Cl)Cl
inactive: dose: 100.0 mg/kg/injection, schedule: Q04DX003 (ip), vehicle: saline 107 % of control | dose: 200.0 mg/kg/injection, schedule: Q04DX003 (ip), vehicle: saline 115 % of control
